Experimental data: patent US8546430B2, “Thalidomide analogs” (P2D, Inc., priority 2003, dated 2013)
Entries after “also recorded” stand apart in the source; their conditions may differ.

Tests used:
TNF-α = assay: Inhibition of LPS-induced TNF-α secretion in human PBMC (ELISA); format: cell-based; conditions: for IC50 / inhibition at 30 µM: Homo sapiens, LPS-induced TNF-α production in PBMC; for TNF-α inhibitory activity (in words): LPS-stimulated PBMC; for Fold more active than thalidomide 201: inhibition of TNF-α synthesis, from IC50 values
Protocol: (§1) The action of the these thiothalidomide analogs in inhibiting TNF-α secretion was assessed in human peripheral blood mononuclear cells (PBMC) and the results are shown in Table 1. Freshly prepared PBMCs were utilized in all studies. Blood, 40 ml, was drawn from a volunteer, immediately mixed with 50 U/ml Na heparin and was diluted to 50 ml total volume with sterile PBS. Samples, 20 ml, of this preparation then were layered on 20 ml Ficoll-Paque and were centrifuged (800 g, 20 min). The Ficoll/serum interface, containing PBMCs, was collected, diluted to 200 ml with PBS, and then was centrifuged (800 g, 15 min) to pellet the cells. Thereafter, the recovered pellet was re-suspended in 37° C. tissue culture medium (RPMI/1 mM Sodium pyruvate/10% heat inactivated FBS/2 mM Glutamax) and placed on ice. Recovered cells were counted, pipetted (200 ul of 5×10^5/ml) into 96 well plates, and incubated for an hour (37° C., 5% CO2). Thereafter, appropriate concentrations of test compounds or vehicle (10 ul DMSO) were added to duplicate wells. Following a further hour of incubation, a 10 ul sample of lipopolysaccharide (LPS) (100 ng/ml in supplemented medium) or vehicle was added to induce stimulated and unstimulated cells, respectively, and the cells were incubated overnight. Sixteen hours later, supernatants were collected for quantification of TNF-α levels by ELISA assay (Pierce-Endogen human TNF-α mini kit, Rockford, Ill.) and the use of specific capture and detection monoclonal antibodies, M303E and M302B (Pierce-Endogen), respectively. ELISA plates were read at λ=450 nm and TNF-α levels were determined from a six-point calibration curve that was run concurrently with the test samples. The effect of test drug concentrations on the cellular viability of PBMCs was assessed by MTS assay (Promega, Madison, Wis.) of the cells that provided the supernatant samples assayed for TNF-α levels, described above. It should be understood that this method can be used to test any of the disclosed compounds as a screening assay for readily determining their TNF-α modulating activity, and for selecting them for use in the disclosed method of treating a subject.

3′-UTR of human TNF-α = assay: Luciferase reporter assay, RAW264.7 cells with vs without the TNF-α 3′-UTR; format: cell-based; conditions: mouse macrophage line RAW264.7, 16 h; FIG. 1
Protocol: To determine the involvement of the 3′-UTR in the action of the thalidomide analogs, their ability to inhibit reporter gene activity in cells containing the TNF-α3′-UTR versus a control vector was assessed. This cell-based assay utilized two stably transfected cell lines derived from the mouse macrophage line, RAW264.7. One line, designated “luciferase only” expressed a luciferase reporter construct without any UTR sequences. The other line, designated “luciferase+TNF-α UTR” expressed a luciferase reporter construct with the entire 3′-UTR of human TNF-α inserted directly downstream of the luciferase coding region. Compounds were added in a concentration-dependent manner, and at the end of the incubation period (16 h, 37° C., 5% CO2) the media was removed, cells were lysed and luciferase activity was assayed with Steady-glo luciferase assay reagent (Promega) according to the supplier's directions. Background was subtracted and data from this assay was expressed as a ratio of the +3′-UTR to −3′-UTR (control) values, and was expressed as a percent as shown in FIG. 1. In this manner, compounds that show a differential effect on the two cell lines, with and without a 3′-UTR, are highlighted. […] All agents lowered luciferase reporter activity in cells stably expressing the 3′-UTR.

PBMC = assay: Cellular viability of PBMCs by MTS assay; format: cell-based, human
Protocol: as §1

rat aortic ring = assay: Rat aortic ring microvessel growth assay; format: cell-based; conditions: 0.1-20 μg/ml daily for 4 days; FIGS. 2-11
Protocol: The angiogenesis modulating activity of representative compounds was assessed in a rat aortic ring microvessel growth assay. Briefly, twelve-well tissue culture plates were coated with 250 μl of Matrigel (Becton-Dickinson, Bedford, Mass.) and allowed to gel for 30 min at 37° C. and 5% CO2. Thoracic aortas were excised from 8- to 10-week-old male Sprague Dawley rats. After careful removal of fibroadipose tissues, the aortas were cut into 1-mm-long cross-sections, placed on Matrigel-coated wells, and covered with an additional 250 μl of Matrigel. After the second layer of Matrigel had set, the rings were covered with EGM-II and incubated overnight at 37° C. and 5% CO2. EGM-II consists of endothelial cell basal medium (EBM-II; Clonetics, San Diego, Calif.) plus endothelial cell growth factors provided as the EGM-II Bulletkit (Clonetics). The culture medium was subsequently changed to EBM-II supplemented with 2% fetal bovine serum, 0.25 μg/ml amphotericin B, and 10 μg/ml gentamicin. Aortic rings were treated daily with either the vehicle (0.5% DMSO), carboxyamidotriazole (CAI, 12 μg/ml), thalidomide or thalidomide analogs (0.1-20 μg/ml) for 4 days and photographed on the 5th day using a ×2.5 objective. CAI, a known antiangiogenic agent, was used at higher than clinically achievable concentration as a positive control. Experiments were repeated four times using aortas from four different rats. The area of angiogenic sprouting, reported in square pixels, was quantified using Adobe PhotoShop. Further details of the method are provided in Luzzio et al., J Med Chem.; 46:3793-9, 2003, which is incorporated by reference herein. It should be understood that this method can be used as an assay to rapidly select compounds having a desired angiogenic or anti-angiogenic effect, for example, for use in the disclosed methods of treating a subject.

| Compound | Inhibition of TNF-α secretion at 30 μM (in words) (TNF-α; 30 μM) | IC50 (TNF-α) [µM] | Concentration required for significant activity (TNF-α; inhibition of TNF-α secretion) [µM] | Luciferase reporter activity, +3′-UTR versus −3′-UTR cells (in words) (3′-UTR of human TNF-α) | inhibition at 30 µM (TNF-α; 30 μM) [%] | TNF-α inhibitory activity (in words) (TNF-α) | Toxicity / cytotoxicity (in words) (PBMC) | Cell viability at 0.3 μM (PBMC) [%] | Cell viability at 3 μM (PBMC) [%] | Cell viability at 30 μM (PBMC) [%] | Fold more active than thalidomide 201 (TNF-α) | Angiogenic modulating activity (in words) (rat aortic ring) | melting point [°C] |
| --- | --- | --- | --- | --- | --- | --- | --- | --- | --- | --- | --- | --- | --- |
| O=C1CCC(N2C(=O)c3ccccc3C2=O)C(=O)N1 (centres unmarked) [Compound 201, Thalidomide] | entirely lacked activity | ~200 | 100 | lacked activity at 50 μM | – | – | – | – | – | – | – | – | – |
| O=C1NC(=S)CCC1N1C(=O)c2ccccc2C1=S (centres unmarked) [Compound 215, 2,3-dihydro-3-thioxo-2-(2-oxo-6-thioxo-3-piperidinyl)-1H-isoindol-1-one] | – | 11 | – | differential effect on the two cell lines in a dose-dependent manner | 61 | potently inhibited TNF-α secretion | without toxicity | 94 | 87 | > 100 | – | – | – |
| O=C1c2ccccc2C(=S)N1C1CCC(=S)NC1=S (centres unmarked) [Compound 216, 2,3-Dihydro-3-thioxo-2-(2,6-dithioxo-3-piperidinyl)-1H-isoindol-1-one] | – | 6 | – | differential effect on the two cell lines in a dose-dependent manner | 79 | potently inhibited TNF-α secretion | without accompanying toxicity | 90 | 86 | 94 | over 30 fold | potent anti-antigiogenic activity at higher concentrations and angiogenic activity at lower concentrations | – |
| S=C1CCCC(=S)N1 [Compound 219, 2,6-Piperidinedithione] | – | 8 | – | differential effect on the two cell lines in a dose-dependent manner | 75 | potent inhibitory effect; also recorded: potently inhibited TNF-α secretion | lack of toxicity; also recorded: without toxicity | 99 | 98 | > 100 | 25 fold | – | 103 |
